Tested on: Staphylococcus (Staphylococcus aureus, Staphylococcus epidermidis, Staphylococcus saprophyticus, and Staphylococcus sciuri)
Test: in vitro inhibition and bactericidal effect on bovine mastitis isolated pathogenic bacteria: Staphylococcus
Assay type: cell-based
Conditions: control antibiotics
Procedure: (5) the recombinant antibacterial polypeptide medicine was tested for the in vitro inhibition and bactericidal effect on bovine mastitis isolated pathogenic bacteria.

`CC(=O)OCC1=C(C(=O)O)N2C(=O)[C@@H](NC(=O)Cc3cccs3)[C@H]2SC1` [cephalothin] was tested, and the “inhibition and bactericidal effect of controls (MIC50/MBC50 not specified)” value was 2 µg/mL.

For `Cc1onc(-c2ccccc2)c1C(=O)N[C@@H]1C(=O)N2[C@@H]1SC(C)(C)[C@@H]2C(=O)O` [oxacillin], the “inhibition and bactericidal effect of controls (MIC50/MBC50 not specified)” value was 4 µg/mL.
